Like-named read-outs stand apart in the source and are kept apart here. Starred links: 1 amine or outer side, 2 acyl side, 3 side chain; linkers in the order of their positions; H or OH if unused. Non-standard residues stand in square brackets, D forms with d. Residues, ends and D or L forms follow the SMILES beside them. *: point of attachment. X10 = NC(=O)CC[C@H](CN[*:1])C(=O)[*:2]; X6 = O=C(O)CC[C@H](CN[*:1])C(=O)[*:2]; X11 = NC[C@H](CO)C(=O)*; X8 = NC[C@@H](CO)C(=O)*
What was measured:
PTHR2 = PTHR2 (Homo sapiens, UniProt P49190); assay: PTHR2 activation, cAMP production (GloSensor) in HEK293 cells; type: cell-based; parameters: expressed in transfected cells; key to PTHR2 Activation: Derivative EC50/PTH EC50: *** denotes poor tolerance of β amino acid for PTHR2 activation; details: for EC50: HEK-293 cells, GloSensor cAMP, read-out: EC50 (nM) of PTHR2 Activation; for PTHR2 Activation: Derivative EC50/PTH EC50: normalized to EC50 of PTH(1-34)-NH2 ([…] printed), cAMP production
Chain of PTHR2 (P49190 25-550): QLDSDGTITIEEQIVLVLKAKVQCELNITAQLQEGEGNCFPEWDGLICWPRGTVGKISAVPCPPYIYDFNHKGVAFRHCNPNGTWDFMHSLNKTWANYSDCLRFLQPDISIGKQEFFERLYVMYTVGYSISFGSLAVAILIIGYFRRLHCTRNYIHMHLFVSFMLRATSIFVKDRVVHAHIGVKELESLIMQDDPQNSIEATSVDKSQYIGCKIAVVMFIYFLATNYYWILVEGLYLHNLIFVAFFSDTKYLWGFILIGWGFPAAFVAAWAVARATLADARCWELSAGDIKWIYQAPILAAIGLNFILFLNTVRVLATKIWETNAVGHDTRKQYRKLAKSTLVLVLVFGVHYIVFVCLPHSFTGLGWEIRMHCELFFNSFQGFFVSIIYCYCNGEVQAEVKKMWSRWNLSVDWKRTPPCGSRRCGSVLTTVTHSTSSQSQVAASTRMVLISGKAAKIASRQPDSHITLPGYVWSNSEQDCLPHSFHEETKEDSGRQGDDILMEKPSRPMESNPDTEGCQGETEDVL
Text: The assays employ HEK-293 cells that have been engineered to express the appropriate receptor. GloSensor-based detection of cAMP provides a read-out of receptor activation. […] (Carter, P. H. et al. Actions of the Small Molecule Ligands SW106 and AH-3960 on the Type-1 Parathyroid Hormone Receptor. Molecular Endocrinology 29, 307-321 (2015).)
FIGS. 10A and 10B depict dose-response curves of PTHR1 activation (FIG. 10A) and PTHR2 activation (FIG. 10B) in HEK293 cells stably expressing PTHR1 or PTHR2. For PTHR1 activation and all the binding data, data represent mean±s.e.m from three independent measurements; For PTHR2 activation, data represent mean±s.e.m from four independent measurements. Curves were fit to the data using a four-parameter sigmoidal dose-response equation.

PTHR1 = target: T1, PTHR1 (Homo sapiens, UniProt Q03431); assay: PTHR1 activation, cAMP production (GloSensor) in HEK293 cells; type: cell-based; parameters: expressed in transfected cells; details: for PTHR1 Activation: Derivative EC50/PTH EC50: normalized to EC50 of PTH(1-34)-NH2 ([…]), cAMP production
T1 sequence (Q03431 27-593): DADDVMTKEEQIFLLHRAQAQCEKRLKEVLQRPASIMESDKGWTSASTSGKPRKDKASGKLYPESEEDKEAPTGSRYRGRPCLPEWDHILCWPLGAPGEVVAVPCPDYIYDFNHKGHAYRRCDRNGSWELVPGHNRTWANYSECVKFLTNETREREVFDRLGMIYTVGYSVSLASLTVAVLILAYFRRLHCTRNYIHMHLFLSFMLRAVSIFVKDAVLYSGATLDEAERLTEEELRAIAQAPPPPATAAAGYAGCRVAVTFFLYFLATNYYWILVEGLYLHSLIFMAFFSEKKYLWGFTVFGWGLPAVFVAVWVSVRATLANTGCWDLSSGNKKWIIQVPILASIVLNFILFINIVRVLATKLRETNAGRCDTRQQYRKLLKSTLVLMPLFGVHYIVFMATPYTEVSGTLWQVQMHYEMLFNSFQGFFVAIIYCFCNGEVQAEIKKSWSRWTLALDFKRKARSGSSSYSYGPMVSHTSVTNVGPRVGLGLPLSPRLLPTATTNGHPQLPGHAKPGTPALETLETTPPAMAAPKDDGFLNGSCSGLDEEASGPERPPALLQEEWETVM
Text: The assays employ HEK-293 cells that have been engineered to express the appropriate receptor. GloSensor-based detection of cAMP provides a read-out of receptor activation.
For PTHR1 activation and all the binding data, data represent mean±s.e.m from three independent measurements; For PTHR2 activation, data represent mean±s.e.m from four independent measurements. Curves were fit to the data using a four-parameter sigmoidal dose-response equation.
For cAMP dose-response assays, monolayers of confluent HEK 293 cells were pre-incubated with buffer containing d-luciferin (0.5 mM) in 96 well plates at room temperature until a stable baseline level of luminescence was established (30 min). Varying concentrations of agonist were then added, and the time course of luminescence response was recorded using a Perkin Elmer plate reader following α/β-peptide addition.

[1] = HEK-293 cells, GloSensor cAMP, read-out: EC50 (nM) of PTHR1 Activation

Row | SMILES | EC50 (PTHR1; [1]) [nM] | PTHR1 Activation: Derivative EC50/PTH EC50 (PTHR1) | EC50 (PTHR1; Table 8, hPTHR1, read-out: PTHR1 EC50) [nM] | EC50 (PTHR2) [nM] | PTHR2 Activation: Derivative EC50/PTH EC50 (PTHR2)
1 | CC[C@H](C)[C@H](NC(=O)[C@H](CCC(=O)O)NC(=O)[C@H](CO)NC(=O)[C@@H](NC(=O)[C@@H](CN)CO)C(C)C)C(=O)N[C@@H](CCC(N)=O)C(=O)N[C@@H](CC(C)C)C(=O)N[C@@H](CCSC)C(=O)N[C@@H](Cc1c[nH]cn1)C(=O)N[C@@H](CC(N)=O)C(=O)N[C@@H](CC(C)C)C(=O)NCC(=O)N[C@@H](CCCCN)C(=O)N[C@@H](Cc1c[nH]cn1)C(=O)N[C@@H](CC(C)C)C(=O)N[C@@H](CC(N)=O)C(=O)N[C@@H](CO)C(=O)N[C@@H](CCSC)C(=O)N[C@@H](CCC(=O)O)C(=O)N[C@@H](CCCNC(=N)N)C(=O)N[C@H](C(=O)N[C@@H](CCC(=O)O)C(=O)N[C@@H](Cc1c[nH]c2ccccc12)C(=O)N[C@@H](CC(C)C)C(=O)N[C@@H](CCCNC(=N)N)C(=O)N[C@@H](CCCCN)C(=O)N[C@@H](CCCCN)C(=O)N[C@@H](CC(C)C)C(=O)N[C@@H](CCC(N)=O)C(=O)N[C@@H](CC(=O)O)C(=O)N[C@H](C(=O)N[C@@H](Cc1c[nH]cn1)C(=O)N[C@@H](CC(N)=O)C(=O)N[C@@H](Cc1ccccc1)C(N)=O)C(C)C)C(C)C [SEQ. ID. NO: 22] (X8-VSEIQLMHNLGKHLNSMERVEWLRKKLQDVHNF-NH2) | 0.35 ± 0.06 |  |  | 5.97 ± 1.21 | 
2 | CC[C@H](C)[C@H](NC(=O)[C@H](CCC(=O)O)CNC(=O)[C@H](CO)NC(=O)[C@@H](NC(=O)[C@@H](N)CO)C(C)C)C(=O)N[C@@H](CCC(N)=O)C(=O)N[C@@H](CC(C)C)C(=O)N[C@@H](CCSC)C(=O)N[C@@H](Cc1c[nH]cn1)C(=O)N[C@@H](CC(N)=O)C(=O)N[C@@H](CC(C)C)C(=O)NCC(=O)N[C@@H](CCCCN)C(=O)N[C@@H](Cc1c[nH]cn1)C(=O)N[C@@H](CC(C)C)C(=O)N[C@@H](CC(N)=O)C(=O)N[C@@H](CO)C(=O)N[C@@H](CCSC)C(=O)N[C@@H](CCC(=O)O)C(=O)N[C@@H](CCCNC(=N)N)C(=O)N[C@H](C(=O)N[C@@H](CCC(=O)O)C(=O)N[C@@H](Cc1c[nH]c2ccccc12)C(=O)N[C@@H](CC(C)C)C(=O)N[C@@H](CCCNC(=N)N)C(=O)N[C@@H](CCCCN)C(=O)N[C@@H](CCCCN)C(=O)N[C@@H](CC(C)C)C(=O)N[C@@H](CCC(N)=O)C(=O)N[C@@H](CC(=O)O)C(=O)N[C@H](C(=O)N[C@@H](Cc1c[nH]cn1)C(=O)N[C@@H](CC(N)=O)C(=O)N[C@@H](Cc1ccccc1)C(N)=O)C(C)C)C(C)C [SEQ. ID. NO: 25] (H-SVS[X6]IQLMHNLGKHLNSMERVEWLRKKLQDVHNF-NH2; N-terminus assumed) | 22.9 ± 1.89 | 60.26 |  | > 1000 | ***
3 | CC[C@H](C)[C@H](NC(=O)[C@H](CCC(=O)O)NC(=O)[C@H](CO)NC(=O)[C@@H](NC(=O)[C@@H](N)CO)C(C)C)C(=O)NC[C@@H](CCC(N)=O)C(=O)N[C@@H](CC(C)C)C(=O)N[C@@H](CCSC)C(=O)N[C@@H](Cc1c[nH]cn1)C(=O)N[C@@H](CC(N)=O)C(=O)N[C@@H](CC(C)C)C(=O)NCC(=O)N[C@@H](CCCCN)C(=O)N[C@@H](Cc1c[nH]cn1)C(=O)N[C@@H](CC(C)C)C(=O)N[C@@H](CC(N)=O)C(=O)N[C@@H](CO)C(=O)N[C@@H](CCSC)C(=O)N[C@@H](CCC(=O)O)C(=O)N[C@@H](CCCNC(=N)N)C(=O)N[C@H](C(=O)N[C@@H](CCC(=O)O)C(=O)N[C@@H](Cc1c[nH]c2ccccc12)C(=O)N[C@@H](CC(C)C)C(=O)N[C@@H](CCCNC(=N)N)C(=O)N[C@@H](CCCCN)C(=O)N[C@@H](CCCCN)C(=O)N[C@@H](CC(C)C)C(=O)N[C@@H](CCC(N)=O)C(=O)N[C@@H](CC(=O)O)C(=O)N[C@H](C(=O)N[C@@H](Cc1c[nH]cn1)C(=O)N[C@@H](CC(N)=O)C(=O)N[C@@H](Cc1ccccc1)C(N)=O)C(C)C)C(C)C [SEQ. ID. NO: 27] (H-SVSEI[X10]LMHNLGKHLNSMERVEWLRKKLQDVHNF-NH2; N-terminus assumed) | 7.83 ± 0.4 | 20.61 |  | 51.9 ± 8.82 | 59.70
4 | CC[C@H](C)[C@H](NC(=O)C[C@H](CCC(=O)O)NC(=O)[C@H](CO)NC(=O)[C@@H](NC(=O)[C@@H](N)CO)C(C)C)C(=O)N[C@@H](CCC(N)=O)C(=O)N[C@@H](CC(C)C)C(=O)N[C@@H](CCSC)C(=O)N[C@@H](Cc1c[nH]cn1)C(=O)N[C@@H](CC(N)=O)C(=O)N[C@@H](CC(C)C)C(=O)NCC(=O)N[C@@H](CCCCN)C(=O)N[C@@H](Cc1c[nH]cn1)C(=O)N[C@@H](CC(C)C)C(=O)N[C@@H](CC(N)=O)C(=O)N[C@@H](CO)C(=O)N[C@@H](CCSC)C(=O)N[C@@H](CCC(=O)O)C(=O)N[C@@H](CCCNC(=N)N)C(=O)N[C@H](C(=O)N[C@@H](CCC(=O)O)C(=O)N[C@@H](Cc1c[nH]c2ccccc12)C(=O)N[C@@H](CC(C)C)C(=O)N[C@@H](CCCNC(=N)N)C(=O)N[C@@H](CCCCN)C(=O)N[C@@H](CCCCN)C(=O)N[C@@H](CC(C)C)C(=O)N[C@@H](CCC(N)=O)C(=O)N[C@@H](CC(=O)O)C(=O)N[C@H](C(=O)N[C@@H](Cc1c[nH]cn1)C(=O)N[C@@H](CC(N)=O)C(=O)N[C@@H](Cc1ccccc1)C(N)=O)C(C)C)C(C)C [SEQ. ID. NO: 41] |  |  |  | 60.1 ± 9.82 | 

Continued, in another order:

Row | EC50 (PTHR1; [1]) [nM] | PTHR1 Activation: Derivative EC50/PTH EC50 (PTHR1) | EC50 (PTHR1; Table 8, hPTHR1, read-out: PTHR1 EC50) [nM] | SMILES | EC50 (PTHR2) [nM] | PTHR2 Activation: Derivative EC50/PTH EC50 (PTHR2)
5 |  |  | 1.55 ± 0.3 | CC[C@H](C)[C@H](NC(=O)[C@H](CCC(=O)O)NC(=O)[C@H](CO)NC(=O)[C@@H](NC(=O)[C@H](CN)CO)C(C)C)C(=O)N[C@@H](CCC(N)=O)C(=O)N[C@@H](CC(C)C)C(=O)N[C@@H](CCSC)C(=O)N[C@@H](Cc1c[nH]cn1)C(=O)N[C@@H](CC(N)=O)C(=O)N[C@@H](CC(C)C)C(=O)NCC(=O)N[C@@H](CCCCN)C(=O)N[C@@H](Cc1c[nH]cn1)C(=O)N[C@@H](CC(C)C)C(=O)N[C@@H](CC(N)=O)C(=O)N[C@@H](CO)C(=O)N[C@@H](CCSC)C(=O)N[C@@H](CCC(=O)O)C(=O)N[C@@H](CCCNC(=N)N)C(=O)N[C@H](C(=O)N[C@@H](CCC(=O)O)C(=O)N[C@@H](Cc1c[nH]c2ccccc12)C(=O)N[C@@H](CC(C)C)C(=O)N[C@@H](CCCNC(=N)N)C(=O)N[C@@H](CCCCN)C(=O)N[C@@H](CCCCN)C(=O)N[C@@H](CC(C)C)C(=O)N[C@@H](CCC(N)=O)C(=O)N[C@@H](CC(=O)O)C(=O)N[C@H](C(=O)N[C@@H](Cc1c[nH]cn1)C(=O)N[C@@H](CC(N)=O)C(=O)N[C@@H](Cc1ccccc1)C(N)=O)C(C)C)C(C)C [SEQ. ID. NO: 30] (X11-VSEIQLMHNLGKHLNSMERVEWLRKKLQDVHNF-NH2) |  | 
6 | 3.4 ± 1.22 |  |  | CC[C@H](C)[C@@H](CC(=O)N[C@@H](CCC(N)=O)C(=O)N[C@@H](CC(C)C)C(=O)N[C@@H](CCSC)C(=O)N[C@@H](Cc1cnc[nH]1)C(=O)N[C@@H](CC(N)=O)C(=O)N[C@@H](CC(C)C)C(=O)NCC(=O)N[C@@H](CCCCN)C(=O)N[C@@H](Cc1cnc[nH]1)C(=O)N[C@@H](CC(C)C)C(=O)N[C@@H](CC(N)=O)C(=O)N[C@@H](CO)C(=O)N[C@@H](CCSC)C(=O)N[C@@H](CCC(=O)O)C(=O)N[C@@H](CCCNC(=N)N)C(=O)N[C@H](C(=O)N[C@@H](CCC(=O)O)C(=O)N[C@@H](Cc1c[nH]c2ccccc12)C(=O)N[C@@H](CC(C)C)C(=O)N[C@@H](CCCNC(=N)N)C(=O)N[C@@H](CCCCN)C(=O)N[C@@H](CCCCN)C(=O)N[C@@H](CC(C)C)C(=O)N[C@@H](CCC(N)=O)C(=O)N[C@@H](CC(=O)O)C(=O)N[C@H](C(=O)N[C@@H](Cc1cnc[nH]1)C(=O)N[C@@H](CC(N)=O)C(=O)N[C@@H](Cc1ccccc1)C(N)=O)C(C)C)C(C)C)NC(=O)[C@H](CCC(=O)O)NC(=O)[C@H](CO)NC(=O)[C@@H](NC(=O)[C@@H](N)CO)C(C)C [SEQ. ID. NO: 42] |  | 

— patent US11780901B2, “Analogues of parathyroid hormone (1-34) that function as agonists of the parathyroid hormone receptor-1 and display modified activity profiles” (Wisconsin Alumni Research Foundation, priority 2013, dated 2023)
